Assay results as given in patent publication US20220220152A1, “BIVALENT ANTAGONISTS OF INHIBITORS OF APOPTOSIS PROTEINS” (Hepagene Therapeutics (HK) Limited, priority 2019, published 2022).

What was measured:
[1] = target: T1, XIAP-BIR3 (Homo sapiens, UniProt P98170); assay: XIAP-BIR3 fluorescence polarization binding assay; conditions: FP, probe AbuRPFK-5FAM (SM5F) 5 nM, XIAP-BIR3 40 nM, 60 min at 25° C.
T1 construct: XIAP-BIR3; purchased Reaction Biology APT-11-374
Outline: (§1)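 Fluorescence polarization competition using 5-carboxyfluorescein-labelled peptide probe AbuRPFK-5FAM; protein and compound preincubated 15 min, probe added, then 60 min at 25° C.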

[2] = target: T2, cIAP1-BIR3 (Homo sapiens, UniProt Q13490); assay: cIAP1-BIR3 fluorescence polarization binding assay; conditions: FP, probe AbuRPFK-5FAM (SM5F) 5 nM, cIAP1-BIR3 15 nM, 60 min at 25° C.
T2 construct: cIAP1-BIR3; purchased Reaction Biology APT-11-370
Outline: as §1

[3] = target: T3, cIAP2-BIR3 (Homo sapiens, UniProt Q13489); assay: cIAP2-BIR3 fluorescence polarization binding assay; conditions: FP, probe AbuRPFK-5FAM (SM5F) 5 nM, cIAP2-BIR3 80 nM, 60 min at 25° C.
T3 construct: cIAP2-BIR3; purchased Reaction Biology APT-11-372
Outline: as §1

T2 sequence (Q13490 253-363 limits assumed): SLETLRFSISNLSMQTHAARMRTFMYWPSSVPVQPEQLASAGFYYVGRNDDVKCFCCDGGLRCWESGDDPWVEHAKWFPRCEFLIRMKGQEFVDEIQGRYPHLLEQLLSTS
T1 sequence (P98170 241-356 limits assumed): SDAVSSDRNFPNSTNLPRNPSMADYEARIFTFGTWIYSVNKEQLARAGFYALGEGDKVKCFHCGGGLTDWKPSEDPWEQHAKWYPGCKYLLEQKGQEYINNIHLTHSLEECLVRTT
T3 sequence (Q13489 238-349 limits assumed): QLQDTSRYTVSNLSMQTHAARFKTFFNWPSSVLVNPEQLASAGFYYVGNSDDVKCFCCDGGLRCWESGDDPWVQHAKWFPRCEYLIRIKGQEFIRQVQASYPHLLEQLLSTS

SMILES | IC50 [1] | IC50 [2] | IC50 [3]
CN[C@@H](C)C(=O)N[C@H](C(=O)N1C[C@@H](O)C[C@H]1C(=O)N[C@@H]1CCCc2c(OCCCCCOc3cccc4c3CCC[C@H]4NC(=O)[C@@H]3C[C@H](O)CN3C(=O)[C@@H](NC(=O)[C@H](C)NC)C3CCCCC3)cccc21)C1CCCCC1 [Compound I-B, (2S,4S)-1-((S)-2-cyclohexyl-2-((S)-2-(methylamino)propanamido)acetyl)-N—((R)-5-((5-(((R)-5-((2S,4S)-1-((S)-2-cyclohexyl-2-((S)-2-(methylamino)propanamido)acetyl)-4-hydroxypyrrolidine-2-carboxamido)-5,6,7,8-tetrahydronaphthalen-1-yl)oxy)pentyl)oxy)-1,2,3,4-tetrahydronaphthalen-1-yl)-4-hydroxypyrrolidine-2-carboxamide] | 100 to 1000 nM | 1 to 10 nM | 10 to 100 nM
CN[C@@H](C)C(=O)N[C@H](C(=O)N1CCC[C@H]1C(=O)N[C@@H]1CCCc2c(-c3ccc(-c4ccc(-c5cccc6c5CCC[C@H]6NC(=O)[C@@H]5CCCN5C(=O)[C@@H](NC(=O)[C@H](C)NC)C5CCCCC5)cc4)cc3)cccc21)C1CCCCC1 [Compound III-G, (S)-1-((S)-2-cyclohexyl-2-((S)-2-(methylamino)propanamido)acetyl)-N—((R)-5-(4′-((R)-5-((S)-1-((S)-2-cyclohexyl-2-((S)-2-(methylamino)propanamido)acetyl)pyrrolidine-2-carboxamido)-5,6,7,8-tetrahydronaphthalen-1-yl)-[1,1′-biphenyl]-4-yl)-1,2,3,4-tetrahydronaphthalen-1-yl)pyrrolidine-2-carboxamide] | 100 to 1000 nM | 1 to 10 nM | 10 to 100 nM
CN[C@@H](C)C(=O)N[C@H](C(=O)N1CCC[C@H]1C(=O)N[C@@H]1CCCc2c(Nc3cccc4c3CCC[C@H]4NC(=O)[C@@H]3CCCN3C(=O)[C@@H](NC(=O)[C@H](C)NC)C(C)C)cccc21)C(C)C [Compound VI-B, (S)-1-(methyl-L-alanyl-L-valyl)-N—((R)-5-(((R)-5-((S)-1-(methyl-L-alanyl-L-valyl)pyrolidine-2-carboxamido)-5,6,7,8-tetrahydronaphthalen-1-yl)amino)-1,2,3,4-tetrahydronaphthalen-1-yl)pyrrolidine-2-carboxamide] | 10 to 100 nM | 1 to 10 nM | 10 to 100 nM
CN[C@@H](C)C(=O)N[C@H](C(=O)N1CCC[C@H]1C(=O)N[C@@H]1CCCc2c(Nc3cccc4c3CCC[C@H]4NC(=O)[C@@H]3CCCN3C(=O)[C@@H](NC(=O)[C@H](C)NC)C3CCCCC3)cccc21)C1CCCCC1 [Compound VI, (S)-1-((S)-2-cyclohexyl-2-((S)-2-(methylamino)propanamido)acetyl)-N—((R)-5-(((R)-5-((S)-1-((S)-2-cyclohexyl-2-((S)-2-(methylamino)propanamido)acetyl)pyrrolidine-2-carboxamido)-5,6,7,8-tetrahydronaphthalen-1-yl)amino)-1,2,3,4-tetrahydronaphthalen-1-yl)pyrrolidine-2-carboxamide] | 10 to 100 nM | 1 to 10 nM | 10 to 100 nM
CN[C@@H](C)C(=O)N[C@H](C(=O)N1CCC[C@H]1C(=O)N[C@@H]1CCCc2c(-c3ccc(-c4cccc5c4CCC[C@H]5NC(=O)[C@@H]4CCCN4C(=O)[C@@H](NC(=O)[C@H](C)NC)C4CCCCC4)cc3)cccc21)C1CCCCC1 [Compound III, (2S)-1-[(2S)-2-Cyclohexyl-2-[(2S)-2-(methylamino)propanamido]acetyl]-N-[(1R)-5-[4-[(5R)-5-[(2S)-1-[(2S)-2-cyclohexyl-2-[(2S)-2-(methylamino)propanamido]acetyl]pyrrolidine-2-amido]-5,6,7,8-tetrahydronaphthalen-1-yl]phenyl]-1,2,3,4-tetrahydronaphthalen-1-yl]pyrrolidine-2-carboxamide] | 10 to 100 nM | 1 to 10 nM | 10 to 100 nM
CN[C@@H](C)C(=O)N[C@H](C(=O)N1CCC[C@H]1C(=O)N[C@@H]1CCOc2c(-c3cccc4c3OCC[C@H]4NC(=O)[C@@H]3CCCN3C(=O)[C@@H](NC(=O)[C@H](C)NC)C3CC3)cccc21)C1CC1 [Compound V-E, (2S)-1-[(2S)-2-cyclopropyl-2-[(2S)-2-(methylamino)propanamido]acetyl]-N-[(4R)8-[(4R)-4-[(2S)-1-[(2S)-2-cyclopropyl-2-[(2S)-2-(methylamino)propanamido]acetyl]pyrrolidine-2-amido]-3,4-dihydro-2H-1-benzopyran-8-yl]-3,4-dihydro-2H-1-benzopyran-4-yl]pyrrolidine-2-carboxamide] | 10 to 100 nM | 1 to 10 nM | 10 to 100 nM
CN[C@@H](C)C(=O)N[C@H](C(=O)N1CCC[C@H]1C(=O)N[C@@H]1CCCc2c(OC/C=C/COc3cccc4c3CCC[C@H]4NC(=O)[C@@H]3CCCN3C(=O)[C@@H](NC(=O)[C@H](C)NC)C3CCCCC3)cccc21)C1CCCCC1 [Compound IV-A, (2S)-1-[(2S)-2-Cyclohexyl-2-[(2S)-2-(methylamino)propanamido]acetyl]-N-[(1R)-5-[[(2E)-4-[[(5R)-5-[(2S)-1-[(2S)-2-cyclohexyl-2-[(2S)-2-(methylamino)propanamido]acetyl]pyrrolidine-2-amido]-5,6,7,8-tetrahydronaphthalen-1-yl]oxy]but-2-en-1-yl]oxy]-1,2,3,4-tetrahydronaphthalen-1-yl]pyrrolidine-2-carboxamide] | 10 to 100 nM | 1 to 10 nM | 10 to 100 nM
CN[C@@H](C)C(=O)N[C@H](C(=O)N1CCC[C@H]1C(=O)N[C@@H]1CCOc2c(-c3cccc4c3OCC[C@H]4NC(=O)[C@@H]3CCCN3C(=O)[C@@H](NC(=O)[C@H](C)NC)C3CCCCC3)cccc21)C1CCCCC1 [Compound V-P, (S)-1-((S)-2-cyclohexyl-2-((S)-2-(methylamino)propanamido)acetyl)-N-((4R,4′R)-4′-((S)-1-((S)-2-cyclohexyl-2-((S)-2-(methylamino)propanamido)acetyl)pyrrolidine-2-carboxamido)-[8,8′-bichroman]-4-yl)pyrrolidine-2-carboxamide] | 10 to 100 nM | 1 to 10 nM | 10 to 100 nM
CN[C@@H](C)C(=O)N[C@@H](C)C(=O)N1CCC[C@H]1C(=O)N[C@@H]1CCOc2c(-c3cccc4c3OCC[C@H]4NC(=O)[C@@H]3CCCN3C(=O)[C@H](C)NC(=O)[C@H](C)NC)cccc21 [Compound V-A, (2S)-1-[(2S)-2-[(2S)-2-(methylamino)propanamido]propanoyl]-N-[(4R)-8-[(4R)-4-[(2S)-1-[(2S)-2-[(2S)-2-(methylamino)propanamido]propanoyl]pyrrolidine-2-amido]-3,4-dihydro-2H-1-benzopyran-8-yl]-3,4-dihydro-2H-1-benzopyran-4-yl]pyrrolidine-2-carboxamide] | 100 to 1000 nM | 1 to 10 nM | 10 to 100 nM

The remaining lines, values ahead:

IC50 [1] | IC50 [2] | IC50 [3] | SMILES
10 to 100 nM | 1 to 10 nM | 10 to 100 nM | CC[C@H](NC(=O)[C@H](C)NC)C(=O)N1CCC[C@H]1C(=O)N[C@@H]1CCCc2c(Nc3cccc4c3CCC[C@H]4NC(=O)[C@@H]3CCCN3C(=O)[C@H](CC)NC(=O)[C@H](C)NC)cccc21 [Compound VI-C, (2S,2'S)—N,N′-((1R,1′R)-azanediylbis(1,2,3,4-tetrahydronaphthalene-5,1-diyl))bis(1-((S)-2-((S)-2-(methylamino)propanamido)butanoyl)pyrrolidine-2-carboxamide)]
10 to 100 nM | 1 to 10 nM | 10 to 100 nM | CN[C@@H](C)C(=O)N[C@H](C(=O)N1CCC[C@H]1C(=O)N[C@@H]1CCCc2c(-c3cccc4c3CCC[C@H]4NC(=O)[C@@H]3CCCN3C(=O)[C@@H](NC(=O)[C@H](C)NC)C(C)(C)C)cccc21)C(C)(C)C [Compound V-J, (2S)-1-[(2S)-3,3-dimethyl-2-[(2S)-2-(methylamino)propanamido]butanoyl]-N-[(5R,5′R)-5′-[(2S)-[(2S)-3,3-dimethyl-2-[(2S)-2-(methylamino)propanamido]butanoyl]pyrolidine-2-amido]-5H,5′ H,6H,6′H,7H,7′H,8H,8′ H-[1,1′-binaphthalen]-5-yl]pyrrolidine-2-carboxamide]
10 to 100 nM | 1 to 10 nM | 10 to 100 nM | CN[C@@H](C)C(=O)N[C@H](C(=O)N1CCC[C@H]1C(=O)N[C@@H]1CCCc2c(-c3cccc4c3CCC[C@H]4NC(=O)[C@@H]3CCCN3C(=O)[C@@H](NC(=O)[C@H](C)NC)C3CCOCC3)cccc21)C1CCOCC1 [Compound V-K, (S)-1-((S)-2-((S)-2-(methylamino)propanamido)-2-(tetrahydro-2H-pyran-4-yl)acetyl)-N-((5R,5′R)-5′-((S)-1-((S)-2-((S)-2-(methylamino)propanamido)-2-(tetrahydro-2H-pyran-4-yl)acetyl)pyrrolidine-2-carboxamido)-5,5′,6,6′,7,7′,8,8′-octahydro-[1,1′-binaphthalen]-5-yl)pyrrolidine-2-carboxamide]
10 to 100 nM | 1 to 10 nM | 10 to 100 nM | CC[C@H](NC(=O)[C@H](C)NC)C(=O)N1CCC[C@H]1C(=O)N[C@@H]1CCCc2c(-c3ccc(-c4cccc5c4CCC[C@H]5NC(=O)[C@@H]4CCCN4C(=O)[C@H](CC)NC(=O)[C@H](C)NC)cc3)cccc21 [III-I, (2S)-1-[(2S)-2-[(2S)-2-(methylamino)propanamido]butanoy]l-N-[(1R)-5-[4-[(5R)-5-[(2S)-1-[(2S)-2-[(2S)-2-(methylamino)propanamido]butanoyl]pyrrolidine-2-amido]-5,6,7,8-tetrahydronaphthalen-1-yl]phenyl]-1,2,3,4-tetrahydronaphthalen-1-yl]pyrrolidine-2-carboxamide]
